Experimental data taken from article PMC7504435, “Combined Protein- and Ligand-Observed NMR Workflow to Screen Fragment Cocktails against Multiple Proteins: A Case Study Using Bromodomains” (Molecules, 2020).

Experiments:
PfGCN5 bromodomain [1] = molecular target: T1, PfGCN5 bromodomain (Plasmodium falciparum, UniProt Q8IB67); assay: biochemical; assay type: binding
Method: The screening workflow consists of two dependent steps: 1) a PrOF NMR screen of the 5FW-labeled proteins and a cocktail of 4–5 fragments in a single NMR tube; 2) a ^1H CPMG NMR binding assay to deconvolute the hit mixtures for each protein (Figure 1). In the first step, a dual-protein PrOF NMR spectrum was obtained in which 5FW-PfGCN5, 5FW-BPTF (~ 50 µM each) and mixtures of fragments (400 µM individual fragment) were present in the same NMR tube. […] Chemical shift perturbations indicating a ligand binding event were based on a prior cutoff of Δδ ≥ 0.030 ppm as the definition for a hit mixture. This cutoff was based on a statistical analysis of chemical shift perturbations from a prior BRD4 D1 fragment screen and are described further in the experimental section and in Table S2.
PrOF NMR. PrOF NMR spectra were obtained on a Bruker Avance III HD 500 with the 5 mm Prodigy TCI inverse cryoprobe (^19F S:N 2000:1). […] The DMSO concentration for all experiments was kept constant at 1%. […] For the PrOF NMR screen, 5FW-BPTF and 5FW-PfGCN5 (35–40 µM in 50 mM phosphate, 100 mM NaCl, pH 7.4) were tested with mixtures of 4–5 fragments, where each individual fragment was 400 µM. […] A 10 Hz line broadening was applied. Titrations were fit to Equation (2), where p is the protein concentration and L is the ligand concentration. (2) Δδ=Δδmax × (Kd+P+L ) − (((Kd + P + L )^2) − 4PL)/2P
A PrOF NMR binding event is characterized as a change in chemical shift (Δδ) from the protein-only spectrum to the protein + fragment mixture spectrum. We used a prior cutoff of Δδ ≥ 0.030 ppm as the definition of a hit mixture, based on a statistical analysis of chemical shift perturbations from a prior BRD4 D1 fragment screen.

BPTF bromodomain = BPTF bromodomain (Homo sapiens, UniProt Q12830); assay: 1H CPMG NMR deconvolution of hit mixtures, BPTF; assay type: binding; set-up: deconvolution of the hit mixtures using the non-fluorine-labeled bromodomains; made in house; host or cells: E. coli BL21(DE3); details: 10 µM protein, 100 µM ligand
Method: (§1) The second step is a ^1H CPMG NMR deconvolution of the hit mixtures using the non-fluorine-labeled bromodomains. ^1H CPMG NMR employs a T2 filter to take advantage of the difference in transverse relaxation time between protein and small molecules to filter out the bound-state ligand(s). Unlike the PrOF NMR assay, a single protein is assayed in each experiment. A binding event is characterized by a decrease in ligand resonance intensity from the ligand alone spectrum to the ligand + protein spectrum. A hit is defined as a decrease in resonance intensity ≥ 20%. The ^1H CPMG NMR assay can be tuned by changing the protein or ligand concentration, filter length (Figure 1), or hit criteria depending on how stringent the desired hit rate is. The number of ^1H CPMG NMR deconvolution experiments is directly informed from the first step. If a mixture from the first step was only a hit for one protein, a single ^1H CPMG NMR deconvolution experiment is needed. If a mixture from the first step was a hit for both proteins, two separate ^1H CPMG NMR deconvolutions experiments are needed to determine the fragments that bind to each protein.
(§2) ^1H CPMG NMR. ^1H CPMG NMR screen data were acquired on Bruker Avance III HD 500 with the 5 mm Prodigy TCI cryoprobe inverse cryoprobe (^1H 2500:1 S/N). Competition ^1H CPMG NMR data were acquired on Bruker 700 MHz Avance with a CryoProbe 5 mm TXI (^1H S:N with H2O suppression (2mM sucrose) - 900:1) and excitation sculpting water suppression. Proteins were present at 10 µM in 50 mM phosphate, 100 mM NaCl, pH 7.4 in 100% D2O. In separate NMR tubes, a ^1H CPMG NMR pulse was applied to a 1) mixture of ligands (individual ligands present at 100 µM for the screen and 50 µM for competition experiments) and 2) ligands + protein. […] For the competition experiments, τ was increased to 4.0 ms.

PfGCN5 bromodomain [2] = molecular target: T1, PfGCN5 bromodomain; assay: 1H CPMG NMR deconvolution of hit mixtures, PfGCN5; assay type: binding; details: 10 µM protein, 100 µM ligand
Method: as §1, §2

BRD4 D1 = details: previous screen; NC = noncompetitive with JQ1 in 1H CPMG competition; cited from earlier work

T1 sequence (Q8IB67 entry or part of it): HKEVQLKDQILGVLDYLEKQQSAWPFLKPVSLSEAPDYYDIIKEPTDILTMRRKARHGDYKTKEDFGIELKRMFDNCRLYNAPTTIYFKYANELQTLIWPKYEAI

Row | BPTF CPMG % decrease (BPTF bromodomain) [%] | SMILES | PfGCN5 CPMG % decrease (PfGCN5 bromodomain [2]) [%] | other results
1 |  | CCOC(=O)Nc1cc(-c2ccc(C)c(NS(C)(=O)=O)c2)nn2c(C)nnc12 [bromosporine, reference compound] |  | PrOF NMR titration with 5FW-PfGCN5, result in words (PfGCN5 bromodomain [1]): slow exchange kinetics
2 | 53 | CCCCC(=O)Nc1sc(C)c(C)c1C(N)=O [Fragment F2590-0203] |  | 
3 |  | CS(=O)(=O)NCC(c1ccoc1)N1CCSCC1 (centres unmarked) [Fragment F6353-5787] | 40 | 
4 | 36 | Cc1nnc(SCC(=O)N2CCCCCC2)n(N)c1=O [Fragment F1847-0012] |  | 
5 | 33 | O=C1CSCCN1 [Fragment F0848-0336] |  | 
6 | 40 | Cc1csc(NC(=O)C2CCNCC2)n1.Cl [Fragment F2158-1471] |  | 
7 | 46 | C=CCNC1CCN(C)C1=O (centres unmarked) [Fragment F1905-0298] |  | 
8 | 23 | CSCCC(C)(O)CNC(=O)NC1CCOCC1 (centres unmarked) [Fragment F6089-9820] |  | 
9 | 38 | CCOCCCNc1ncnc2c1cnn2C [Fragment F1852-0063] |  | 
10 | 23 | O=C1NCCN1C(=O)NCC(c1ccsc1)N1CCC1 (centres unmarked) [Fragment F6353-7315] |  | 
11 |  | CC(C)(C)C(=O)N1CCSC(c2ccccc2)CC1 (centres unmarked) [Fragment F6481-0067] | 53 | 
12 |  | Cc1cc(C(=O)N2CC(N3C(=O)CSC3=O)C2)n(C)n1 [Fragment F6473-4843] | 25 | 
13 |  | CCC(=O)NCc1nc(C)cc(N2CCOCC2)n1 [Fragment F6438-0864] | 67 | 
14 |  | O=C1CCCC2CN(Cc3ccccc3)CC12 (centres unmarked) [Fragment F1905-6609] | 50 | 
15 | 23 | Cc1nnc(CN)o1.Cl [Fragment F2135-1033] |  | 
16 | 29 | Cc1cc(C)n(CC2CCNCC2)n1.Cl.Cl [Fragment F2145-0759] |  | 
17 |  | COc1ccccc1C(CNC(=O)C1CC1)OC (centres unmarked) [Fragment F6451-0004] | 26 | 
18 | 23 | CC(=O)NCC1COCCN1.CC(=O)NCC1COCCN1.Cl.Cl.Cl (centres unmarked) [Fragment F2147-1723] |  | 
19 |  | Cc1onc(N)c1S(=O)(=O)N1CCC(C)CC1 [Fragment F2158-1788] | 40 | 
20 |  | Cc1ccc(S(=O)(=O)O)cc1.N#CC1CNCCO1 [Fragment F8880-7458] | 24 | 

Row | BPTF CPMG % decrease (BPTF bromodomain) [%] | SMILES | PfGCN5 CPMG % decrease (PfGCN5 bromodomain [2]) [%] | other results
21 | 63 | CC(C)(C)NC(=O)c1cnc2n(c1=O)CCS2 [Fragment F0550-0006] |  | 
22 |  | CC(C)CS(=O)(=O)C1CN(S(=O)(=O)C(C)C)C1 [Fragment F6442-1971] | 22 | 
23 | 48 | OCC1CCCN1c1cccc(C(F)(F)F)n1 (centres unmarked) [Fragment F6541-4533] |  | 
24 | 48 | CC(C)(C)C(O)CCNC(=O)COc1ccc(F)cc1 (centres unmarked) [Fragment F6190-0594] |  | 
25 |  | CC12CCC3(C)OCC(CO)(CO1)N23 (centres unmarked) [Fragment F1983-0015] | 50 | 
26 | 34 | CC(C)Nc1nc2c(c(=O)[nH]c(=O)n2C)n1CC(O)CO (centres unmarked) [Fragment F2477-0016] |  | 
27 |  | CC(C)C1NC(=O)CNC1=O (centres unmarked) [Fragment F2147-0955] | 50 | 
28 |  | COCCCn1c(C(=O)O)cc2c(=O)n(C)c(=O)n(C)c21 [Fragment F9995-1074] | 41 | 
29 | 32 | COC(CNC(=O)C1CN(C(=O)c2cc(C)on2)C1)OC [Fragment F6125-0675] |  | 
30 | 46 | CCCSc1nnc2[nH]c(=O)c(C)c(C)n12 [Fragment F2513-0609] |  | 
31 |  | COCC(=O)NC(C)Cc1ccc2c(c1)CCO2 (centres unmarked) [Fragment F6356-0896] | 25 | 
32 | 36 | O=C(NCCC(O)C1CC1)Nc1ccccc1Cl (centres unmarked) [Fragment F6190-0472] |  | 
33 |  | Cc1nc(N2CCCC2)nc(C)c1NS(C)(=O)=O [Fragment F6438-0300] | 42 | 
34 | 55 | Cc1cc(-c2nnc(NC(=O)C3CC3)o2)nn1C [Fragment F5036-0073] |  | Kd (BRD4 D1): 1200 µM
35 |  | CC(C)(C)OC(=O)N1CCC2CNCC21 (centres unmarked) [Fragment F1905-6593] | 21 | 
36 |  | CCCCS(=O)(=O)N1CC(S(=O)(=O)CC(C)C)C1 [Fragment F6442-1973] | 26 | 
37 | 54 | c1cc(OCC2CO2)ccc1OCC1CO1 (centres unmarked) [Fragment F0777-0005] |  | 
38 |  | CC(C)CC(=O)NCc1nccc(N(C)C)n1 [Fragment F6438-1301] | 50 | 
39 |  | O=C(C1CC=CCC1)N1CCC(c2ccc3c(c2)OCO3)C1 (centres unmarked) [Fragment F6518-4331] | 58 | 
40 | 29 | CC(C)(C)OC(=O)N1CCCC(C(=O)O)C1 (centres unmarked) [Fragment F2158-1186] |  | 

Row | SMILES | BPTF CPMG % decrease (BPTF bromodomain) [%] | PfGCN5 CPMG % decrease (PfGCN5 bromodomain [2]) [%] | other results
41 | O=C(C1CC1)N1CCCC(Cc2nc(C3CC3)no2)C1 (centres unmarked) [Fragment F6497-0456] | 100 | 100 | 
42 | CC(C)C(=O)N1CCN(c2cnnc(N(C)C)c2)CC1 [Fragment F6438-1468] | 62 | 100 | 
43 | Cc1nc(NCCNC(=O)C(C)C)cc(N2CCCC2)n1 [Fragment F5626-0027] | 77 | 75 | 
44 | CCCC(=O)Nc1cc2c3c(c1)CC(=O)N3CCC2 [Fragment F2666-0003] | 54 | 100 | Kd (BRD4 D1): 840 µM
45 | Cc1ccc(C)c(S(=O)(=O)N2CCCC2C(=O)O)c1 (centres unmarked) [Fragment F2189-0042] | 35 | 32 | 
46 | CCNc1cc(NCCNC(=O)CC(C)C)nc(C)n1 [Fragment F5626-0058] | 50 | 47 | 
47 | CCCCNc1nc2c([nH]1)c(=O)n(C)c(=O)n2C [Fragment F3176-0122] | 80 | 77 | Kd (BRD4 D1): 2500 µM
48 | CC(C(=O)NCc1cnn2c1CCCC2)n1cccn1 (centres unmarked) [Fragment F6513-5793] | 72 | 49 | 
49 | CCCCSc1nnc(-c2cn(C)nc2OC)n1CC [Fragment F5003-0140] | 52 | 36 | 
50 | C1CC2NCCOC2C1.Cl (centres unmarked) [Fragment F1905-0651] | 75 |  | 
51 | Cc1nnc(C2CCN(C(=O)c3ccsc3)CC2)s1 [Fragment F5496-0578] | 55 | 83 | 
52 | CCC(C)Sc1nnc(-c2cn(C)nc2OC)n1CC (centres unmarked) [Fragment F5003-0141] | 52 | 36 | 
53 | COc1ccc(C2CCCCN(S(C)(=O)=O)C2)cc1 (centres unmarked) [Fragment F6464-1254] | 69 | 33 | 
54 | CCOC(=O)c1sc(NC(=O)C2CCOC2)cc1C (centres unmarked) [Fragment F0882-2747] | 54 | 63 | Kd (BRD4 D1): 660 µM
55 | CCOC(=O)c1c(NC(C)=O)sc(C)c1C [Fragment F0777-0038] | 100 | 100 | Kd (BRD4 D1): 820 µM
56 | Cc1c(C(=O)O)n[nH]c1C1CC1 [Fragment F2185-0055] | 31 | 29 | 
57 | COC(C)(CNS(C)(=O)=O)c1cccc(Cl)c1 (centres unmarked) [Fragment F6452-1288] | 32 | 57 | 
58 | CC(C)(C)OC(=O)N1CC(Oc2ncccn2)C1 [Fragment F2158-1792] | 54 | 68 | 
